“And” between values parts separate entries of the source, which are not always exact repeats. Equal entries are not always repeated. Inconclusive results and toxic doses are left out.

In the experiment the test system is CD2F1 mice, L1210 leukemia ip, survival T/C. The experiment can be described thus: NCI In Vivo Anticancer Drug Screen. Data for tumor model L1210 Leukemia (intraperitoneal) in CD2F1 (CDF1) mice. The conditions noted are these: higher = longer survival. The method in brief: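 Activity against a transplanted murine tumor was judged by comparing the compound group with a vehicle group. The outcome in the treated animals was divided by that in the controls.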

Setting [1] is: endpoint: mean survival time, dose: 100.0 mg/kg/injection, schedule: Q01DX001 (ip), vehicle: saline.
[2] abbreviates: endpoint: mean survival time, dose: 200.0 mg/kg/injection, schedule: Q01DX001 (ip), vehicle: saline.
Setting [3] is: endpoint: mean survival time, dose: 100.0 mg/kg/injection, schedule: Q01DX009 (ip), vehicle: saline with Tween-80.
[4] abbreviates: endpoint: mean survival time, dose: 100.0 mg/kg/injection, schedule: Q04DX003 (ip), vehicle: saline with Tween-80.
[5] abbreviates: endpoint: mean survival time, dose: 200.0 mg/kg/injection, schedule: Q01DX009 (ip), vehicle: saline with Tween-80.
Where [6] appears, read: endpoint: mean survival time, dose: 200.0 mg/kg/injection, schedule: Q04DX003 (ip), vehicle: saline with Tween-80.
The mark [7] stands for this setting: endpoint: mean survival time, dose: 400.0 mg/kg/injection, schedule: Q01DX009 (ip), vehicle: saline with Tween-80.
Setting [8] is: endpoint: mean survival time, dose: 400.0 mg/kg/injection, schedule: Q04DX003 (ip), vehicle: saline with Tween-80.
The mark [9] stands for this setting: endpoint: mean survival time, dose: 100.0 mg/kg/injection, schedule: Q04DX002 (ip), vehicle: saline with Tween-80.
Setting [10] is: endpoint: mean survival time, dose: 200.0 mg/kg/injection, schedule: Q04DX002 (ip), vehicle: saline with Tween-80.
[11] abbreviates: endpoint: mean survival time, dose: 400.0 mg/kg/injection, schedule: Q04DX002 (ip), vehicle: saline with Tween-80.

With `C[n+]1cccc(C(=O)N/N=C/c2ccco2)c1`, the T/C reads like this: (endpoint: mean survival time, dose: 100.0 mg/kg/injection, schedule: Q04DX003 (ip), vehicle: saline) 105 % of control; (endpoint: mean survival time, dose: 200.0 mg/kg/injection, schedule: Q04DX003 (ip), vehicle: saline) 98 % of control; (endpoint: mean survival time, dose: 400.0 mg/kg/injection, schedule: Q04DX003 (ip), vehicle: saline) 104 % of control.

For `CN=C(c1ccccc1)C1(O)CC2CCC1C2` (stereo not drawn), the T/C was 101 % of control under setting [1]; 98 % of control under setting [2]; 101 % of control (endpoint: mean survival time, dose: 400.0 mg/kg/injection, schedule: Q01DX001 (ip), vehicle: saline).

Consider `CC1(C)CC(C)(c2ccc(O)cc2)c2ccccc2O1` (stereo not drawn), for which the T/C was 90 % of control under setting [3]; 92 % of control under setting [4]; 92 % of control under setting [5]; 92 % of control under setting [6]; 91 % of control under setting [7]; 90 % of control under setting [8].

For the compound `COc1ccc(C(O)c2nnc(C(O)c3ccc(OC)cc3)nn2)cc1` (stereo not drawn), the T/C runs as follows: under setting [4], 86 % of control; under setting [6], 89 % of control; under setting [8], 92 % of control.

Take `CC(=O)CC(=O)Nc1cc(Cl)c(NC(=O)CC(C)=O)cc1Cl`: the T/C by setting is: (endpoint: mean survival time, dose: 44.0 mg/kg/injection, schedule: Q04DX003 (ip), vehicle: saline with Tween-80) 104 % of control; (endpoint: mean survival time, dose: 66.0 mg/kg/injection, schedule: Q04DX003 (ip), vehicle: saline with Tween-80) 96 % of control; under setting [3], 97 % of control; under setting [4], 98 % of control; (endpoint: mean survival time, dose: 150.0 mg/kg/injection, schedule: Q04DX003 (ip), vehicle: saline with Tween-80) 100 % of control; under setting [5], 97 % of control. The T/C under setting [7] was 97 % of control.

For `Nc1cc2[nH]cnc2c([Se])n1`, the T/C reads like this: under setting [4], 101 % of control; under setting [6], 107 % of control.

With `O=C(NNc1ccccc1)c1ccccc1`, the T/C reads like this: (endpoint: mean survival time, dose: 12.5 mg/kg/injection, schedule: Q01DX009 (ip), vehicle: Klucel (hydroxypropylcellulose) (HPC)) 110 % of control; (endpoint: mean survival time, dose: 25.0 mg/kg/injection, schedule: Q01DX009 (ip), vehicle: Klucel (hydroxypropylcellulose) (HPC)) 105 % of control; (endpoint: mean survival time, dose: 50.0 mg/kg/injection, schedule: Q01DX009 (ip), vehicle: Klucel (hydroxypropylcellulose) (HPC)) 106 % of control; (endpoint: mean survival time, dose: 75.0 mg/kg/injection, schedule: Q01DX009 (ip), vehicle: saline) 96 % of control; under setting [9], 110 % of control; (endpoint: mean survival time, dose: 150.0 mg/kg/injection, schedule: Q01DX009 (ip), vehicle: saline) 97 % of control. For the same compound, the T/C reads like this: under setting [10], 100 % of control; (endpoint: mean survival time, dose: 300.0 mg/kg/injection, schedule: Q01DX009 (ip), vehicle: saline) 98 % of control; under setting [11], 110 % of control.

In the case of `CC(C)(C[NH-])C[NH-].O=C(O)CC(=O)O.[Pt+2]`, the T/C runs as follows: (endpoint: median survival time, dose: 0.78 mg/kg/injection, schedule: Q04DX003 (ip), vehicle: water) 116 % of control; (endpoint: median survival time, dose: 1.56 mg/kg/injection, schedule: Q04DX003 (ip), vehicle: water) 113 % of control; (endpoint: median survival time, dose: 3.12 mg/kg/injection, schedule: Q04DX003 (ip), vehicle: water) 112 % of control; (endpoint: median survival time, dose: 3.13 mg/kg/injection, schedule: Q04DX003 (ip), vehicle: distilled water + Tween-80) 123 % of control; (endpoint: median survival time, dose: 12.5 mg/kg/injection, schedule: Q04DX003 (ip), vehicle: distilled water + Tween-80) 116 % of control; (endpoint: median survival time, dose: 12.5 mg/kg/injection, schedule: Q04DX003 (ip), vehicle: water) 112 % of control. Also, the T/C (endpoint: median survival time, dose: 25.0 mg/kg/injection, schedule: Q04DX003 (ip), vehicle: distilled water + Tween-80) was 98 % of control.

Consider `O=CO.[Mn]`, for which the T/C is, setting by setting: (endpoint: mean survival time, dose: 5.0 mg/kg/injection, schedule: Q01DX001 (ip), vehicle: saline) 96 % of control; (endpoint: mean survival time, dose: 10.0 mg/kg/injection, schedule: Q01DX001 (ip), vehicle: saline) 101 % of control; (endpoint: mean survival time, dose: 20.0 mg/kg/injection, schedule: Q01DX001 (ip), vehicle: saline) 96 % of control; (endpoint: mean survival time, dose: 40.0 mg/kg/injection, schedule: Q01DX001 (ip), vehicle: saline) 96 % of control; (endpoint: mean survival time, dose: 80.0 mg/kg/injection, schedule: Q01DX001 (ip), vehicle: saline) 98 % of control.

Consider `CCOC(=O)c1c2c(n3ccccc13)C(=O)c1ccccc1C2=O`, for which the T/C reads like this: (endpoint: mean survival time, dose: 75.0 mg/kg/injection, schedule: Q01DX001 (ip), vehicle: saline) 97 % of control; (endpoint: mean survival time, dose: 150.0 mg/kg/injection, schedule: Q01DX001 (ip), vehicle: saline) 103 % of control; (endpoint: mean survival time, dose: 300.0 mg/kg/injection, schedule: Q01DX001 (ip), vehicle: saline) 105 % of control.

Regarding `CC(C)(C)c1cc(C=C(C#N)C#N)cc(C(C)(C)C)c1O`, the T/C runs as follows: (endpoint: mean survival time, dose: 100.0 mg/kg/injection, schedule: Q01DX001 (ip), vehicle: Klucel (hydroxypropylcellulose) (HPC)) 87 % of control; (endpoint: mean survival time, dose: 200.0 mg/kg/injection, schedule: Q01DX001 (ip), vehicle: Klucel (hydroxypropylcellulose) (HPC)) 102 % of control; (endpoint: mean survival time, dose: 400.0 mg/kg/injection, schedule: Q01DX001 (ip), vehicle: Klucel (hydroxypropylcellulose) (HPC)) 87 % of control.

Turning to `Nc1nc(N)c2c(Cl)c(CNc3ccc(Cl)c(Cl)c3)ccc2n1`, the T/C runs as follows: (endpoint: mean survival time, dose: 3.12 mg/kg/injection, schedule: Q01DX009 (ip), vehicle: saline with Tween-80) 110 % of control; (endpoint: mean survival time, dose: 3.13 mg/kg/injection, schedule: Q01DX009 (ip), vehicle: saline with Tween-80) 98 % of control; (endpoint: mean survival time, dose: 6.25 mg/kg/injection, schedule: Q01DX009 (ip), vehicle: saline with Tween-80) 114 % of control and 115 % of control; (endpoint: mean survival time, dose: 25.0 mg/kg/injection, schedule: Q01DX009 (ip), vehicle: saline with Tween-80) 153 % of control; (endpoint: mean survival time, dose: 50.0 mg/kg/injection, schedule: Q01DX009 (ip), vehicle: saline with Tween-80) 156 % of control and 188 % of control; under setting [3], 111 % of control. In addition, the T/C is 102 % of control and 110 % of control (endpoint: median survival time, dose: 6.25 mg/kg/injection, schedule: Q01DX009 (ip), vehicle: saline with Tween-80); 150 % of control and 153 % of control (endpoint: median survival time, dose: 25.0 mg/kg/injection, schedule: Q01DX009 (ip), vehicle: saline with Tween-80); 159 % of control (endpoint: median survival time, dose: 50.0 mg/kg/injection, schedule: Q01DX005 (ip), vehicle: saline with Tween-80); 175 % of control and 198 % of control (endpoint: median survival time, dose: 50.0 mg/kg/injection, schedule: Q01DX009 (ip), vehicle: saline with Tween-80); 202 % of control (endpoint: median survival time, dose: 83.33 mg/kg/injection, schedule: Q01DX005 (ip), vehicle: saline with Tween-80); 230 % of control (endpoint: median survival time, dose: 83.63 mg/kg/injection, schedule: Q01DX005 (ip), vehicle: saline with Tween-80). Besides, the T/C is, setting by setting: (endpoint: median survival time, dose: 138.89 mg/kg/injection, schedule: Q01DX005 (ip), vehicle: saline with Tween-80) 179 % of control; (endpoint: median survival time, dose: 139.39 mg/kg/injection, schedule: Q01DX005 (ip), vehicle: saline with Tween-80) 151 % of control; (endpoint: median survival time, dose: 232.31 mg/kg/injection, schedule: Q01DX005 (ip), vehicle: saline with Tween-80) 117 % of control.

Regarding `OC1CC2C3C4C1C1C2C3C41` (stereo not drawn), the T/C reads like this: under setting [3], 104 % of control; under setting [4], 107 % of control; under setting [5], 95 % of control; under setting [6], 98 % of control; under setting [7], 95 % of control; under setting [8], 97 % of control.

Regarding `Cc1ccc2nc(-c3ccc(Cl)cc3Cl)oc(=O)c2c1`, the T/C by setting is: under setting [9], 100 % of control; under setting [10], 114 % of control; under setting [11], 107 % of control.

For `NCC1CCCCO1` (stereo not drawn), the T/C reads like this: (endpoint: mean survival time, dose: 50.0 mg/kg/injection, schedule: Q01DX001 (ip), vehicle: saline) 90 % of control; under setting [1], 98 % of control; under setting [2], 93 % of control.

For the origin of these results see PubChem BioAssay AID256 (DTP/NCI, 2004).
